# Like-named read-outs stand apart in the source and are kept apart here.
# Assays:
# [1] = system: MDA-MB; experiment: cells; details: Homo sapiens, read-out: Average cell viability, MDA-MB
# [2] = CIMA assay, cell viability, CCD1079SK; details: human, Average cell viability, CCD
# Protocol: (§1) Stock solutions of the extracts were prepared in dimethylsulfoxide (DMSO) at 10 mg/mL and stored in 200 μl aliquots at −20° C. until analysis. This preparation ensured that the DMSO delivered to cells in culture never exceeded 1%.
# (§2) Prepared extracts were assessed following chronic exposure conditions in which cells were seeded at 2×10^3 cells/well (96 well-plate) and incubated with test compounds for 72 h. Each compound was evaluated over a range of concentrations (0, 10, 25, 50 or 100 μg/ml). Cell proliferation was initially assessed using a standard colorimetric indicator of metabolic activity (CIMA) assay. In this assay, tetrazole reduction was evaluated as a measure of metabolic function that evaluates mitochondrial activity to determine the extent of cell proliferation within a culture. This assay is based on the reduction of yellow tetrazolium salt to purple formazan by mitochondrial reductases enzyme in viable cells, resulting in a color changed that confers a change in absorbance.
# [3] = system: CCD1079SK (fibroblast, noncancerous but proliferating); experiment: CIMA assay, cell viability, CCD1079SK; details: CCD
# Protocol: as §1, §2
# [4] = system: A549 (lung carcinoma); experiment: CIMA assay (colorimetric indicator of metabolic activity), cell viability, A549; details: for Fold change in viability AVG: A549
# [5] = system: MDA-MB; details: MDA-MB
# [6] = system: U373 (glioblastoma-astrocytoma); experiment: CIMA assay, cell viability, U373; details: for Fold change in viability AVG: U373
# [7] = system: SKOV3 (ovarian adenocarcinoma); experiment: CIMA assay, cell viability, SKOV3; details: for Fold change in viability AVG: SKOV
# [8] = system: PC3; experiment: CIMA assay, cell viability, PC3; details: for Fold change in viability AVG: PC3
# [9] = system: THP-1 (acute monocytic leukemia); experiment: CIMA assay, cell viability, THP-1; details: for Fold change in viability AVG: THP-1
smiles,measurement,setting,value
"CC/C=C\C/C=C\C/C=C\C/C=C\C/C=C\CCCC(=O)OCC(COC1OC(CO)C(O)C(O)C1O)OC(=O)CCC/C=C\C/C=C\C/C=C\C/C=C\C/C=C\CC (stereo not shown) [Compound 7, MGDG C20:5/C20:5]",viability at 1 µg/mL,[1]; 1 ug/mL,106%
same,viability at 10 µg/mL,[1]; 10 ug/mL,104%
same,viability at 50 µg/mL,[1]; 50 ug/mL,27%
same,viability at 100 µg/mL,[1]; 100 ug/mL,24%
same,"viability at 72 h, 1 ug/mL","[2]; CCD1079SK fibroblast cells (noncancerous, proliferating), 1 ug/mL",103%
same,"viability at 72 h, 10 ug/mL","[2]; CCD1079SK fibroblasts (noncancerous, proliferating), 10 ug/mL",97%
same,"viability at 72 h, 50 ug/mL","[2]; CCD1079SK fibroblasts (noncancerous, proliferating), 50 ug/mL",23%
same,"viability at 72 h, 100 ug/mL","[2]; CCD1079SK fibroblasts (noncancerous, proliferating), 100 ug/mL",17%
same,Fold change in viability AVG,[3]; 1 ug/mL,1.13
same,Fold change in viability AVG,[3]; 10 ug/mL,1.06
same,Fold change in viability AVG,[3]; 50 ug/mL,0.25
same,Fold change in viability AVG,[3]; 100 ug/mL,0.19
same,A549 AVG,"[4]; A549, sample at 1 ug/mL",0.72
same,A549 AVG,"[4]; A549, sample at 10 ug/mL",0.65
same,A549 AVG,"[4]; A549, sample at 50 ug/mL",0.64
same,A549 AVG,"[4]; A549, sample at 100 ug/mL",0.40
same,Fold change in viability AVG,[4]; 1 ug/mL,0.72
same,Fold change in viability AVG,[4]; 10 ug/mL,0.65
same,Fold change in viability AVG,[4]; 50 ug/mL,0.64
same,Fold change in viability AVG,[4]; 100 ug/mL,0.40
same,viability at 1 µg/mL,"[4]; Homo sapiens, A549, read-out: Average cell viability, A549, 1 ug/mL",61%
same,viability at 10 µg/mL,"[4]; Homo sapiens, A549, read-out: Average cell viability, A549, 10 ug/mL",56%
same,viability at 50 µg/mL,"[4]; Homo sapiens, A549, read-out: Average cell viability, A549, 50 ug/mL",55%
same,viability at 100 µg/mL,"[4]; Homo sapiens, A549, read-out: Average cell viability, A549, 100 ug/mL",34%
same,MDA-MB AVG,[5]; sample at 1 ug/mL,1.16
same,MDA-MB AVG,[5]; sample at 10 ug/mL,1.13
same,MDA-MB AVG,[5]; sample at 50 ug/mL,0.30
same,MDA-MB AVG,[5]; sample at 100 ug/mL,0.27
same,Fold change in viability AVG,[5]; 1 ug/mL,1.16
same,Fold change in viability AVG,[5]; 10 ug/mL,1.13
same,Fold change in viability AVG,[5]; 50 ug/mL,0.30
same,Fold change in viability AVG,[5]; 100 ug/mL,0.27
same,viability at 1 µg/mL,"[6]; Homo sapiens, U373 MG, read-out: Average cell viability, U373, 1 ug/mL",120%
same,viability at 10 µg/mL,"[6]; Homo sapiens, U373 MG, read-out: Average cell viability, U373, 10 ug/mL",108%
same,viability at 50 µg/mL,"[6]; Homo sapiens, U373 MG, read-out: Average cell viability, U373, 50 ug/mL",6%
same,viability at 100 µg/mL,"[6]; Homo sapiens, U373 MG, read-out: Average cell viability, U373, 100 ug/mL",5%
same,U373 AVG,"[6]; U373, sample at 1 ug/mL",1.22
same,U373 AVG,"[6]; U373, sample at 10 ug/mL",1.10
same,U373 AVG,"[6]; U373, sample at 50 ug/mL",0.06
same,U373 AVG,"[6]; U373, sample at 100 ug/mL",0.05
same,Fold change in viability AVG,[6]; 1 ug/mL,1.22
same,Fold change in viability AVG,[6]; 10 ug/mL,1.10
same,Fold change in viability AVG,[6]; 50 ug/mL,0.06
same,Fold change in viability AVG,[6]; 100 ug/mL,0.05
same,viability at 1 µg/mL,"[7]; Homo sapiens, SK-OV-3, read-out: Average cell viability, SKOV, 1 ug/mL",126%
same,viability at 10 µg/mL,"[7]; Homo sapiens, SK-OV-3, read-out: Average cell viability, SKOV, 10 ug/mL",113%
same,viability at 50 µg/mL,"[7]; Homo sapiens, SK-OV-3, read-out: Average cell viability, SKOV, 50 ug/mL",95%
same,viability at 100 µg/mL,"[7]; Homo sapiens, SK-OV-3, read-out: Average cell viability, SKOV, 100 ug/mL",46%
same,Fold change in viability AVG,[7]; 1 ug/mL,1.36
same,Fold change in viability AVG,[7]; 10 ug/mL,1.21
same,Fold change in viability AVG,[7]; 50 ug/mL,1.02
same,Fold change in viability AVG,[7]; 100 ug/mL,0.49
same,viability at 1 µg/mL,"[8]; Homo sapiens, PC-3, read-out: Average cell viability, PC3, 1 ug/mL",107%
same,viability at 10 µg/mL,"[8]; Homo sapiens, PC-3, read-out: Average cell viability, PC3, 10 ug/mL",103%
same,viability at 50 µg/mL,"[8]; Homo sapiens, PC-3, read-out: Average cell viability, PC3, 50 ug/mL",14%
same,viability at 100 µg/mL,"[8]; Homo sapiens, PC-3, read-out: Average cell viability, PC3, 100 ug/mL",12%
same,PC3 AVG,"[8]; PC3, sample at 1 ug/mL",1.11
same,PC3 AVG,"[8]; PC3, sample at 10 ug/mL",1.07
same,PC3 AVG,"[8]; PC3, sample at 50 ug/mL",0.14
same,PC3 AVG,"[8]; PC3, sample at 100 ug/mL",0.13
same,Fold change in viability AVG,[8]; 1 ug/mL,1.11
same,Fold change in viability AVG,[8]; 10 ug/mL,1.07
same,Fold change in viability AVG,[8]; 50 ug/mL,0.14
same,Fold change in viability AVG,[8]; 100 ug/mL,0.13
same,viability at 1 µg/mL,"[9]; Homo sapiens, THP-1, read-out: Average cell viability, THP-1, 1 ug/mL",108%
same,viability at 10 µg/mL,"[9]; Homo sapiens, THP-1, read-out: Average cell viability, THP-1, 10 ug/mL",102%
same,viability at 50 µg/mL,"[9]; Homo sapiens, THP-1, read-out: Average cell viability, THP-1, 50 ug/mL",52%
same,viability at 100 µg/mL,"[9]; Homo sapiens, THP-1, read-out: Average cell viability, THP-1, 100 ug/mL",50%
same,THP-1 AVG,"[9]; THP-1, sample at 1 ug/mL",1.17
same,THP-1 AVG,"[9]; THP-1, sample at 10 ug/mL",1.16
same,THP-1 AVG,"[9]; THP-1, sample at 50 ug/mL",0.59
same,THP-1 AVG,"[9]; THP-1, sample at 100 ug/mL",0.57
same,Fold change in viability AVG,[9]; 1 ug/mL,1.17
same,Fold change in viability AVG,[9]; 10 ug/mL,1.16
same,Fold change in viability AVG,[9]; 50 ug/mL,0.59
same,Fold change in viability AVG,[9]; 100 ug/mL,0.57

# Reference: US11292807B2 (OCEANS LTD., priority 2015, dated 2022)
